# From patent US6989263B1, “Method for identifying and using compounds that inactivate HIV-1 and other retroviruses by attacking highly conserved zinc fingers in the viral nucleocapsid protein” (The United States of America as represented by the …, priority 1994, dated 2006)
# Biological target: T1, p7NC (Human immunodeficiency virus type 1 group M subtype B, UniProt P05888)
# T1 construct: The NC protein of HIV-1 (MN) p7NC was expressed in E. coli; made in house; host or cells: E. coli (vector pMAL-c)
# Assay: HPLC analysis of reaction products of purified p7NC with reagent
# Format: biochemical, HIV-1
# Procedure, shortened: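 Purified zinc-reconstituted p7NC (63 μM) incubated 10 min with reagent at 6:1 reagent:protein; products resolved by reversed-phase C-18 HPLC at pH 2 (0.05% TFA) with acetonitrile gradient. Rated fast (full conversion), slow (>10% native remaining) or very slow (>50% native remaining).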
smiles,measurement,value
"NC(=O)c1cccc(N=O)c1 [NOBA, 3-nitrosobenzamide]","reaction with purified p7NC (HPLC), in words",oxidizes p7NC to products eluting as peaks A and B
